From patent US7727986B2, “Pesticide pyrimidinyloxy substituted phenylamidine derivatives” (Bayer CropScience AG, priority 2005, dated 2010)

Test: logP by HPLC on reversed-phase column (C 18), EEC Directive 79/831 Annex V.A8
Type: physicochemical
Settings: for chromatographic logP: reversed-phase C18 HPLC column, value in preparation example text, read-out: log P (pH 2.3)
Experimental: Temperature: 40° C.; Mobile phases: 0.1% aqueous formic acid and acetonitrile; linear gradient from 10% acetonitrile to 90% acetonitrile.

[1] = HPLC, 0.1% aqueous formic acid and acetonitrile, 40° C., pH 2.3
[2] = measured at pH = 4 (footnote a)

| SMILES | logPa [1] | also measured |
| --- | --- | --- |
| CCN(C)c1nc(Oc2cc(C)c(N)cc2C)ncc1Cl [2-(4-amino-2,5-dimethylphenoxy)-5-chloro-N-ethyl-N-methylpyrimidin-4-amine] |  | chromatographic logP (pH 2.3): 1.88 |
| Cc1cc(Oc2ccnc(Cl)n2)c(C)cc1N [4-(2-chloro-pyrimidin-4-yloxy)-2.5-dimethyl-phenylamine] |  | log P (pH 2.3) (pH 2.3): 1.37 |
| Cc1cc(Oc2ccnc(Oc3cccc(Cl)c3C)n2)c(C)cc1N [4-[2-(3-chloro-2-methyl-phenoxy)-pyrimidin-4-yloxy]-2,5-dimethyl-phenylamine] |  | chromatographic logP (pH 2.3): 2.81 |
| Cc1cc(Oc2cc(C)c(N)cc2C)nc(Cl)n1 [4-[(2-chloro-6-methylpyrimidin-4-yl)oxy]-2,5-dimethylaniline] |  | chromatographic logP (pH 2.3): 1.62 |
| CCN(C)c1nc(Oc2cc(C)c([N+](=O)[O-])cc2C)ncc1Cl [5-chloro-2-(2,5-dimethyl-4-nitrophenoxy)-N-ethyl-N-methylpyrimidin-4-amine] |  | chromatographic logP (pH 2.3): 4.07 |
| CCN(C)C=Nc1cc(C)c(Oc2ccnc(N(C)c3ccccc3)n2)cc1C [Compound 1, N′-{2,5-dimethyl-4-[2-(methyl-phenyl-amino)-pyrimidin-4-yloxy]-phenyl}-N-ethyl-N-methyl-formamidine] | 1.61 | chromatographic logP (pH 2.3): 1.61 |
| CCN(C)C=Nc1cc(C)c(Oc2ccnc(Oc3cccc(Cl)c3C)n2)cc1C [Compound 2, N′-{4-[2-(3-chloro-2-methyl-phenoxy)-pyrimidin-4-yloxy]-2,5-dimethyl-phenyl}-N-ethyl-N-methyl-formamidine] | 2.08 | chromatographic logP (pH 2.3): 2.08 |
| CCN(C)C=Nc1cc(C)c(Oc2cc(C)nc(Cl)n2)cc1C [Compound 3, N′-{4-[(2-chloro-6-methylpyrimidin-4-yl)oxy]-2,5-dimethylphenyl}-N-ethyl-N-methylimido-formamide] | 1.45 | chromatographic logP (pH 2.3): 1.45 |
| CCN(C)C=Nc1cc(C)c(Oc2cc(C(C)(C)C)ncn2)cc1C [Compound 4] |  | logPa [2]: 1.98^a |
| CCN(C)C=Nc1cc(C)c(Oc2cc(Oc3cccc(C(F)(F)F)c3)ncn2)cc1C [Compound 5] |  | logPa [2]: 4.35^a |
| CCN(C)C=Nc1cc(C)c(Oc2cc(-c3cccc(C(F)(F)F)c3)ncn2)cc1C [Compound 6] |  | logPa [2]: 3.19^a |
| CCN(C)C=Nc1cc(C)c(Oc2cc(C(F)(F)F)ncn2)cc1C [Compound 7] |  | logPa [2]: 1.85^a |
| CCN(C)C=Nc1cc(C)c(Oc2ncnc(Oc3cccc(Cl)c3C)c2C)cc1C [Compound 8] | 2.6 |  |
| CCN(C)C=Nc1cc(C)c(Oc2cc(Oc3cccc(C(C)(C)C)c3)ncn2)cc1C [Compound 9] |  | logPa [2]: 4.9^a |
| CCN(C)C=Nc1cc(C)c(Oc2ccnc(N(C)CC)n2)cc1C [Compound 10] | 0.82 |  |
| CCN(C)C=Nc1cc(C)c(Oc2ccnc(OC)n2)cc1C [Compound 11] | 1.16 |  |
| CCCN(C)C=Nc1cc(C)c(Oc2ccnc(OC)n2)cc1C [Compound 12] | 1.38 |  |
| CCCN(C)c1nccc(Oc2cc(C)c(N=CN(C)CC)cc2C)n1 [Compound 13] | 1.25 |  |
| CCN(C)C=Nc1cc(C)c(Oc2cc(Cl)ncn2)cc1C [Compound 15] | 1.4 |  |

| SMILES | logPa [1] | also measured |
| --- | --- | --- |
| CCCN(C)C=Nc1cc(C)c(Oc2cc(Cl)ncn2)cc1C [Compound 16] | 1.56 |  |
| Cc1cc(Oc2cc(Cl)ncn2)c(C)cc1N=CN(C)C(C)C [Compound 17] | 1.54 |  |
| CCN(C)C=Nc1cc(C)c(Oc2ccnc(N3CCOCC3)n2)cc1C [Compound 19] | 1.3 |  |
| CCCN(C)C=Nc1cc(C)c(Oc2ccnc(N3CCOCC3)n2)cc1C [Compound 20] | 3.13 |  |
| CCN(C)C=Nc1cc(C)c(Oc2ccnc(N3CCCCC3)n2)cc1C [Compound 21] | 1.4 |  |
| CCCN(C)C=Nc1cc(C)c(Oc2ccnc(N3CCCCC3)n2)cc1C [Compound 22] | 1.58 |  |
| CCN(C)C=Nc1cc(C)c(Oc2ccnc(Cl)n2)cc1C [Compound 23] | 1.3 |  |
| CCCN(C)C=Nc1cc(C)c(Oc2ccnc(Cl)n2)cc1C [Compound 24] | 1.44 |  |
| Cc1cc(Oc2ccnc(Cl)n2)c(C)cc1N=CN(C)C(C)C [Compound 25] | 1.4 |  |
| COc1nccc(Oc2cc(C)c(N=CN(C)C(C)C)cc2C)n1 [Compound 26] | 1.4 |  |
| CCN(C)C=Nc1cc(C)c(Oc2nc(Cl)ncc2C)cc1C [Compound 27] | 1.42 |  |
| CCCN(C)C=Nc1cc(C)c(Oc2nc(Cl)ncc2C)cc1C [Compound 28] | 1.68 |  |
| Cc1cc(Oc2ccnc(Nc3cccc(Cl)c3)n2)c(C)cc1N=CN(C)C(C)C [Compound 29] | 2.04 |  |
| CCN(C)C=Nc1cc(C)c(Oc2ccnc(Nc3cccc(Cl)c3)n2)cc1C [Compound 30] | 1.94 |  |
| Cc1cc(Oc2ccnc(N3C=NCC3)n2)c(C)cc1N=CN(C)C(C)C [Compound 31] | 1.01 |  |
| CCCN(C)C=Nc1cc(C)c(Oc2cc(C)nc(Cl)n2)cc1C [Compound 32] | 1.62 |  |
| Cc1cc(Oc2ccnc(N3CCOCC3)n2)c(C)cc1N=CN(C)C(C)C [Compound 33] | 1.46 |  |
| Cc1cc(Oc2ccnc(N3CCCCC3)n2)c(C)cc1N=CN(C)C(C)C [Compound 34] | 1.56 |  |
| CCN(C)C=Nc1cc(C)c(Oc2ccnc(Oc3ccccc3)n2)cc1C [Compound 35] | 1.68 |  |

| SMILES | logPa [1] | also measured |
| --- | --- | --- |
| CCCN(C)C=Nc1cc(C)c(Oc2ccnc(N(C)C)n2)cc1C [Compound 38] | 0.89 |  |
| CCN(C)C=Nc1cc(C)c(Oc2cc(OC)ncn2)cc1C [Compound 39] | 1.32 |  |
| CCCN(C)C=Nc1cc(C)c(Oc2cc(OC)ncn2)cc1C [Compound 40] | 1.47 |  |
| CCCN(C)C=Nc1cc(C)c(Oc2cc(N(C)CC)ncn2)cc1C [Compound 42] | 1.6 |  |
| CCN(C)C=Nc1cc(C)c(Oc2cc(N(C)CC)ncn2)cc1C [Compound 43] | 1.46 |  |
| CCOc1nccc(Oc2cc(C)c(N=CN(C)C(C)C)cc2C)n1 [Compound 44] | 1.62 |  |
| CCN(C)c1cc(Oc2cc(C)c(N=CN(C)C(C)C)cc2C)ncn1 [Compound 45] | 1.56 |  |
| Cc1cc(Oc2nc(Cl)ncc2C)c(C)cc1N=CN(C)C(C)C [Compound 46] | 1.62 |  |
| CCOc1nccc(Oc2cc(C)c(N=CN(C)CC)cc2C)n1 [Compound 47] | 1.47 |  |
| COc1cc(Oc2cc(C)c(N=CN(C)C(C)C)cc2C)ncn1 [Compound 48] | 1.49 |  |
| CCCN(C)c1cc(Oc2cc(C)c(N=CN(C)CC)cc2C)ncn1 [Compound 49] | 1.74 |  |
| CCCN(C)C=Nc1cc(C)c(Oc2ccnc(OCC)n2)cc1C [Compound 50] | 1.55 |  |
| CCCN(C)C=Nc1cc(C)c(Oc2cc(N(C)CCC)ncn2)cc1C [Compound 51] | 1.79 |  |
| CCCN(C)C=Nc1cc(C)c(Oc2ccnc(Nc3cccc(Cl)c3)n2)cc1C [Compound 52] | 2.06 |  |
| CCCN(C)c1cc(Oc2cc(C)c(N=CN(C)C(C)C)cc2C)ncn1 [Compound 53] | 1.77 |  |
| CCN(C)C=Nc1cc(C)c(Oc2cc(Cl)nc(C(C)(C)C)n2)cc1C [Compound 59] | 2.61 |  |
| Cc1cc(Oc2cc(Cl)nc(C(C)(C)C)n2)c(C)cc1N=CN(C)C(C)C [Compound 60] | 2.8 |  |
| Cc1cc(Oc2ccnc(N(C)c3ccccc3)n2)c(C)cc1N=CN1CCCCC1 [Compound 61] | 1.84 |  |
| Cc1cc(Oc2ccnc(Oc3ccccc3)n2)c(C)cc1N=CN(C)C [Compound 63] | 1.65 |  |
